Experiments:
RET(V804M) = RET(V804M) (Homo sapiens, UniProt P07949, V804M); conditions: 1 µM, ATP at Km
MST1 = MST1 (Homo sapiens, UniProt Q13043); test: Kinase panel (Millipore); assay type: biochemical; conditions: 1 µM, ATP at Km
ETB (h) = molecular target: T1, ETB (h) (Homo sapiens, UniProt P24530); test: CEREP binding assay; conditions: agonist radioligand, read-out: % Inhibition of Control Specific Binding
T1 construct: purchased Millipore (KinaseProfiler) kinase panel

BLK = BLK (Homo sapiens, UniProt P51451); test: Kinase panel (Millipore); assay type: biochemical; conditions: 1 µM, ATP at Km
BLK, sequence (P51451 whole entry): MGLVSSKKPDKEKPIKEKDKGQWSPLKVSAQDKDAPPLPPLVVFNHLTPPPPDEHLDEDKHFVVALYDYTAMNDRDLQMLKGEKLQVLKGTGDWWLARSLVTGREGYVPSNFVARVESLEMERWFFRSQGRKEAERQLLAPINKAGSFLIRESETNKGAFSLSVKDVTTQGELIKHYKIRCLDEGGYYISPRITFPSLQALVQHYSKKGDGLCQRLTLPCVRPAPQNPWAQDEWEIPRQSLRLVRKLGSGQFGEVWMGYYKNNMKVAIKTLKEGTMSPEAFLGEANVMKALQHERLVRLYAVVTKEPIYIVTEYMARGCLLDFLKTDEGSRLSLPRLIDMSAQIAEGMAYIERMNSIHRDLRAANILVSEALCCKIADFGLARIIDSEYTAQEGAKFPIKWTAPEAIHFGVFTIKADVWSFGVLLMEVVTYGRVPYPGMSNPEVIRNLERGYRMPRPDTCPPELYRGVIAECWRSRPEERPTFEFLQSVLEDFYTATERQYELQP

FER = molecular target: T2, FER (Homo sapiens, UniProt P16591); test: Kinase panel (Millipore); assay type: biochemical; conditions: 1 µM, ATP at Km
T2 construct: purchased Millipore (KinaseProfiler) kinase panel

EPHA7 = molecular target: T3, EPHA7 (Homo sapiens, UniProt Q15375); test: Kinase panel (Millipore); assay type: biochemical; conditions: 1 µM, ATP at Km
T3 construct: purchased Millipore (KinaseProfiler) kinase panel

DDR2 = DDR2 (Homo sapiens, UniProt Q16832); test: Kinase panel (Millipore); assay type: biochemical; conditions: 1 µM, ATP at Km
PIM-3 = PIM-3 (Homo sapiens, UniProt Q86V86); test: Kinase panel (Millipore); assay type: biochemical; conditions: 1 µM, ATP at Km
In vivo mouse PK = conditions: female, NMRI, plasma, iv, 0.2 mg/kg
CRF1 (h) = molecular target: T4, CRF1 (h) (Homo sapiens, UniProt P34998); test: CEREP binding assay; conditions: agonist radioligand, read-out: % Inhibition of Control Specific Binding
T4 construct: purchased Millipore (KinaseProfiler) kinase panel

AR (h) = conditions: 10 µM, agonist radioligand
SRC(T341M) = SRC(T341M) (Homo sapiens, UniProt P12931, T341M); conditions: 1 µM, ATP at Km
HIPK3 = molecular target: T5, HIPK3 (Homo sapiens, UniProt Q9H422); test: Kinase panel (Millipore); assay type: biochemical; conditions: 1 µM, ATP at Km
T5 construct: purchased Millipore (KinaseProfiler) kinase panel
T5 sequence (Q9H422 whole entry): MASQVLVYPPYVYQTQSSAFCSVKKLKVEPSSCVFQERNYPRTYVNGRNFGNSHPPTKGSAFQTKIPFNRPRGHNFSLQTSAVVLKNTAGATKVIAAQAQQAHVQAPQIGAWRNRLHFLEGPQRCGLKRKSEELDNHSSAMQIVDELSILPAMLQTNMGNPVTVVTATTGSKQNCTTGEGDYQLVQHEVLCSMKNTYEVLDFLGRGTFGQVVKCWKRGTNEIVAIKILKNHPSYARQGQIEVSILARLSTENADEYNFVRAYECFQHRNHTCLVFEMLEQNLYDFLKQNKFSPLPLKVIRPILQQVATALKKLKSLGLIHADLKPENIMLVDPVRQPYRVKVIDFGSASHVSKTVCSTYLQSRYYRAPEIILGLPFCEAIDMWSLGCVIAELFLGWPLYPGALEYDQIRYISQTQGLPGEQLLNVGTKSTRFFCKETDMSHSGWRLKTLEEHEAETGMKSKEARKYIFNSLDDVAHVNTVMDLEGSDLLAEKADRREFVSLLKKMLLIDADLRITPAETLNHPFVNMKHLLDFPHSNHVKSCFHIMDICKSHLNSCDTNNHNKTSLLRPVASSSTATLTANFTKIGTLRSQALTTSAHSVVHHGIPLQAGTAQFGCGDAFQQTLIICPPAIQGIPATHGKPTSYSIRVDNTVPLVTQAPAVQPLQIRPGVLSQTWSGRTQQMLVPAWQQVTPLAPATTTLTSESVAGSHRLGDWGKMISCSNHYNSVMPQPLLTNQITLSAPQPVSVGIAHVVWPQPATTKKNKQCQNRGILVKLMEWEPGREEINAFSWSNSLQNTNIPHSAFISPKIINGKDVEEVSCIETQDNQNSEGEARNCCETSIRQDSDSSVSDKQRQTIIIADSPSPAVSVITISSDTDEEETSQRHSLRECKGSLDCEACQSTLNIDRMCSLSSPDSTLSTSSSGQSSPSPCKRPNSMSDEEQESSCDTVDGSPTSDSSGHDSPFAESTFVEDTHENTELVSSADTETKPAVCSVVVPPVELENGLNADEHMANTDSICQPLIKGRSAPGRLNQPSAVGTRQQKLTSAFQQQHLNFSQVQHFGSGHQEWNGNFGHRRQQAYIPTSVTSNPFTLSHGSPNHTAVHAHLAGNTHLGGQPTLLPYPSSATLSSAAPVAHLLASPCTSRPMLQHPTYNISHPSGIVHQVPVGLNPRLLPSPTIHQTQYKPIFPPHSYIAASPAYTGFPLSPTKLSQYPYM

RET(V804L) = RET(V804L) (Homo sapiens, UniProt P07949, V804L); conditions: 1 µM, ATP at Km
RET(V804L), sequence (P07949 658-1114 V804L limits assumed): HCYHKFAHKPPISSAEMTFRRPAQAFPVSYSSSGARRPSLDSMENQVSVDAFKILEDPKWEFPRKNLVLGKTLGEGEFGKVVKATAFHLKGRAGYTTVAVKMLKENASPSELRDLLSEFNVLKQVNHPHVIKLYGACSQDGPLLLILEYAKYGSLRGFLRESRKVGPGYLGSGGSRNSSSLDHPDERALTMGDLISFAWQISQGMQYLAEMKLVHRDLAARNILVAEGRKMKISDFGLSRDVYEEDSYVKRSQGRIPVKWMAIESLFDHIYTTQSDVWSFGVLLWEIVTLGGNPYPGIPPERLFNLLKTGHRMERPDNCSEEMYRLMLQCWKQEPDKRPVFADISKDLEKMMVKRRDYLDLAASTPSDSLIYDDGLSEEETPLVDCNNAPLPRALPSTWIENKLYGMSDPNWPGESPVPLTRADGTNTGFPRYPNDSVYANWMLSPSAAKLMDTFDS

ULK3 = molecular target: T6, ULK3 (Homo sapiens, UniProt Q6PHR2); test: Kinase panel (Millipore); assay type: biochemical; conditions: 1 µM, ATP at Km
T6 construct: purchased Millipore (KinaseProfiler) kinase panel

CLK3 = molecular target: T7, CLK3 (Homo sapiens, UniProt P49761); test: Kinase panel (Millipore); assay type: biochemical; conditions: 1 µM, ATP at Km
T7 construct: purchased Millipore (KinaseProfiler) kinase panel

ABL (H396P) = ABL (H396P) (Homo sapiens, UniProt P00519, H396P); conditions: 1 µM, ATP at Km
P70S6K = molecular target: T8, P70S6K (Homo sapiens, UniProt P23443); test: Kinase panel (Millipore); assay type: biochemical; conditions: 1 µM, ATP at Km
T8 construct: purchased Millipore (KinaseProfiler) kinase panel

PKCBII = PKCBII (Homo sapiens, UniProt P05771); test: Kinase panel (Millipore); assay type: biochemical; conditions: 1 µM, ATP at Km
PKCBII, sequence (P05771 1-673 isoform P05771-2): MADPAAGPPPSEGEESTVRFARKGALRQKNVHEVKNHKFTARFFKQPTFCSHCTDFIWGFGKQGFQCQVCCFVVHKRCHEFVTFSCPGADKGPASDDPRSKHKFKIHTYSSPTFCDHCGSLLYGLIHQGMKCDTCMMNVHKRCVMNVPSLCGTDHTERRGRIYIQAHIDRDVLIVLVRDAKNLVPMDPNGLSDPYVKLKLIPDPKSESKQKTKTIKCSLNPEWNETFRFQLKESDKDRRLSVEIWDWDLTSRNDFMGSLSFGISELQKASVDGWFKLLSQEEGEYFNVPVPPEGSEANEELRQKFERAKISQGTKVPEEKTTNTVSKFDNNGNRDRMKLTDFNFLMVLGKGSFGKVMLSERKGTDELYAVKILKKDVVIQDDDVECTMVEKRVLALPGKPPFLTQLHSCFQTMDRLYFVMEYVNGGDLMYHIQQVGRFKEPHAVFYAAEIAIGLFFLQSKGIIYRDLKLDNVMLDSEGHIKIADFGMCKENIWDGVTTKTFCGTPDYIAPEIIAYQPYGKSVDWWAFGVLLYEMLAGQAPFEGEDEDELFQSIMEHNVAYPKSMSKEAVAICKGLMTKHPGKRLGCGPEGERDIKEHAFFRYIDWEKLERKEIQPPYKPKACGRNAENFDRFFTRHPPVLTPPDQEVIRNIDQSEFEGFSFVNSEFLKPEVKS

RIPK2 = RIPK2 (Homo sapiens, UniProt O43353); test: Kinase panel (Millipore); assay type: biochemical; conditions: 1 µM, ATP at Km
RIPK2, sequence (O43353 whole entry): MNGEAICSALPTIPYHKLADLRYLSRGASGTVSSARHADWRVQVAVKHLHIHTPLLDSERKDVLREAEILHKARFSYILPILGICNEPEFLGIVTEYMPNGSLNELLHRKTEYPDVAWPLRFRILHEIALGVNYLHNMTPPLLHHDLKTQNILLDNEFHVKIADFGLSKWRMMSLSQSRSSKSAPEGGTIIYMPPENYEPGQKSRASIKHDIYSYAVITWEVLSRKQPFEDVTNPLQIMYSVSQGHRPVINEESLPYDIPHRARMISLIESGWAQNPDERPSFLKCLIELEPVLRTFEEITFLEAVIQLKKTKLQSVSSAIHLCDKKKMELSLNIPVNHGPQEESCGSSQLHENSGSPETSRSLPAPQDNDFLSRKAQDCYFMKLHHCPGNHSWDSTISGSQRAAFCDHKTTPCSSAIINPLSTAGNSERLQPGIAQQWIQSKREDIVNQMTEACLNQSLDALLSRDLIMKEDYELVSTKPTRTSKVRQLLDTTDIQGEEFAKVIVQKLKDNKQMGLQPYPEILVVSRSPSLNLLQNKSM

MAO-A = molecular target: T9, MAO-A (Rattus norvegicus, UniProt P21396); test: CEREP binding assay; conditions: antagonist radioligand, read-out: % Inhibition of Control Specific Binding
T9 construct: purchased Millipore (KinaseProfiler) kinase panel

BB3 (h) = molecular target: T10, BB3 (h) (Homo sapiens, UniProt P32247); test: CEREP binding assay; conditions: agonist radioligand, read-out: % Inhibition of Control Specific Binding
T10 construct: purchased Millipore (KinaseProfiler) kinase panel

CDK3/CYCLINE = CDK3/CYCLINE (Homo sapiens, UniProt Q00526); conditions: 1 µM, ATP at Km
SAPK3 = SAPK3 (Homo sapiens, UniProt P53778); test: Kinase panel (Millipore); assay type: biochemical; conditions: 1 µM, ATP at Km
PHKGAMMA2 = PHKGAMMA2 (Homo sapiens, UniProt P15735); test: Kinase panel (Millipore); assay type: biochemical; conditions: 1 µM, ATP at Km
MST2 = molecular target: T11, MST2 (Homo sapiens, UniProt Q13188); test: Kinase panel (Millipore); assay type: biochemical; conditions: 1 µM, ATP at Km
T11 construct: purchased Millipore (KinaseProfiler) kinase panel

EPHB1 = molecular target: T12, EPHB1 (Homo sapiens, UniProt P54762); test: Kinase panel (Millipore); assay type: biochemical; conditions: 1 µM, ATP at Km
T12 construct: purchased Millipore (KinaseProfiler) kinase panel

TRKA = molecular target: T13, TRKA (Homo sapiens, UniProt P04629); test: Kinase panel (Millipore); assay type: biochemical; conditions: 1 µM, ATP at Km
T13 construct: purchased Millipore (KinaseProfiler) kinase panel

PKG1ALPHA = PKG1ALPHA (Homo sapiens, UniProt Q13976); test: Kinase panel (Millipore); assay type: biochemical; conditions: 1 µM, ATP at Km
V2 (h) = molecular target: T14, V2 (h) (Homo sapiens, UniProt P30518); test: CEREP binding assay; conditions: agonist radioligand, read-out: % Inhibition of Control Specific Binding
T14 construct: CEREP

JAK3 = molecular target: T15, JAK3 (Homo sapiens, UniProt P52333); test: Kinase panel (Millipore); assay type: biochemical; conditions: 1 µM, ATP at Km
T15 construct: purchased Millipore (KinaseProfiler) kinase panel
T15 sequence (P52333 whole entry): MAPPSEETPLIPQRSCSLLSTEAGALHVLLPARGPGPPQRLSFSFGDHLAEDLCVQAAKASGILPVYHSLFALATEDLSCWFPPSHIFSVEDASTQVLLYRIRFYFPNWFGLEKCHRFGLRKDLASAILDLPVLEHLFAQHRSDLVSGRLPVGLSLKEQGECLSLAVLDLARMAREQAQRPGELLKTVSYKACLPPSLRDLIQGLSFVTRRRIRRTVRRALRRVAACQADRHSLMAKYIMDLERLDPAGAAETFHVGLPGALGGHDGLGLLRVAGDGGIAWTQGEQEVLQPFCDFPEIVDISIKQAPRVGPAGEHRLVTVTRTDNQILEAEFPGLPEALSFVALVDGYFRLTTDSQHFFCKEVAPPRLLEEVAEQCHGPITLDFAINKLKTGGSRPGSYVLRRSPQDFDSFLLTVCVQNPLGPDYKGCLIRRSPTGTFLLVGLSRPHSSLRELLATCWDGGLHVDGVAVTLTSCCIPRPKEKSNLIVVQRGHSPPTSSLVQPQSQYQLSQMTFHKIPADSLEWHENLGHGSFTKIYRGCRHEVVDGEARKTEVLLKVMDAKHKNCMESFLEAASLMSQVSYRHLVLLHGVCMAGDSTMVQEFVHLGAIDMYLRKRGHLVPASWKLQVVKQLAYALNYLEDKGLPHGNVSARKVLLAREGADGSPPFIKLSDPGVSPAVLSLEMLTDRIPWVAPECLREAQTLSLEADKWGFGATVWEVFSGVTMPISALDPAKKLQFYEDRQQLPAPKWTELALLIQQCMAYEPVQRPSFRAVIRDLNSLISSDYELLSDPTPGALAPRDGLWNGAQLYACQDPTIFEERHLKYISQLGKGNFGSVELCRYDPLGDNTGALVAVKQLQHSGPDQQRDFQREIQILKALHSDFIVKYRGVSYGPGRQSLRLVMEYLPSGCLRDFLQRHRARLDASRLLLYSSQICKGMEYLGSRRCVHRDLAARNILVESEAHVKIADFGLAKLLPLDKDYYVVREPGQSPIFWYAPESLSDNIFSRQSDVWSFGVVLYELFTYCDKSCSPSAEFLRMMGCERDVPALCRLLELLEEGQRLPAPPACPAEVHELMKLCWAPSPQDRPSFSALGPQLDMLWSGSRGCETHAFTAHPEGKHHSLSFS

IKKALPHA = molecular target: T16, IKKALPHA (Homo sapiens, UniProt O15111); test: Kinase panel (Millipore); assay type: biochemical; conditions: 1 µM, ATP at Km
T16 construct: purchased Millipore (KinaseProfiler) kinase panel

MNK2 = molecular target: T17, MNK2 (Homo sapiens, UniProt Q9HBH9); test: Kinase panel (Millipore); assay type: biochemical; conditions: 1 µM, ATP at Km
T17 construct: purchased Millipore (KinaseProfiler) kinase panel

PKD2 = molecular target: T18, PKD2 (Homo sapiens, UniProt Q9BZL6); test: Kinase panel (Millipore); assay type: biochemical; conditions: 1 µM, ATP at Km
T18 construct: purchased Millipore (KinaseProfiler) kinase panel

GCK = molecular target: T19, GCK (Homo sapiens, UniProt Q12851); test: Kinase panel (Millipore); assay type: biochemical; conditions: 1 µM, ATP at Km
T19 construct: purchased Millipore (KinaseProfiler) kinase panel

PKG1BETA = molecular target: T20, PKG1BETA (Homo sapiens, UniProt Q13976); test: Kinase panel (Millipore); assay type: biochemical; conditions: 1 µM, ATP at Km
T20 construct: purchased Millipore (KinaseProfiler) kinase panel

GRK7 = GRK7 (Homo sapiens, UniProt Q8WTQ7); test: Kinase panel (Millipore); assay type: biochemical; conditions: 1 µM, ATP at Km
HCK = HCK (Homo sapiens, UniProt P08631); test: Kinase panel (Millipore); assay type: biochemical; conditions: 1 µM, ATP at Km

RET(V804M), sequence (P07949 658-1114 V804M limits assumed): as the sequence (P07949 658-1114 V804L limits assumed) above, with L147M counted along it
MST1, sequence (Q13043 whole entry): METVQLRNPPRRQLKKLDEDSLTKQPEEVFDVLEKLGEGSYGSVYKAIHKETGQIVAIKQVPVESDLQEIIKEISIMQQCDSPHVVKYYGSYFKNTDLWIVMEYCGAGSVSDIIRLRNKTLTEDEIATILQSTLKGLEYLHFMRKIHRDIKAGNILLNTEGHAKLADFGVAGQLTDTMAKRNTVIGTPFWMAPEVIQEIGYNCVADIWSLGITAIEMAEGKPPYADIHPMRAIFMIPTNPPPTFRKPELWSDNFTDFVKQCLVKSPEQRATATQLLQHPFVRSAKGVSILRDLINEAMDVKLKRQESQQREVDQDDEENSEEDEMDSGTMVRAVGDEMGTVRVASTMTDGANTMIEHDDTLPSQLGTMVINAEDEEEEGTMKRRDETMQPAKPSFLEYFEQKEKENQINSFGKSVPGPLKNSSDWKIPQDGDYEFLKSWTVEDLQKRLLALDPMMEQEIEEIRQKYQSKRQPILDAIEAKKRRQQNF

Cn1ncc2cc(-c3cnc(N)c(Cl)c3N3CCC4(CCNC4=O)CC3)ccc21 [Compound 109, 8-(2-Amino-3-chloro-5-(1-methyl-1H-indazol-5-yl)pyridin-4-yl)-2,8-diazaspiro[4.5]decan-1-one]
% effect (RET(V804M)): 6% | % effect (MST1): 4% | inhibition at 10 µM (ETB (h)): -23% | % effect (BLK): 11% | % effect (FER): 15% | % effect (EPHA7): 13% | % effect (DDR2): 19% | % effect (PIM-3): 6% | Vd (In vivo mouse PK): 0.63 L/kg | clearance (In vivo mouse PK; Cl, 0.2 mg/kg iv): 10.2 mL/min/kg | inhibition at 10 µM (CRF1 (h)): -7% | % Inhibition of Control Specific Binding (AR (h)): -2% | % effect (SRC(T341M)): -8% | % effect (HIPK3): 18% | % effect (RET(V804L)): -7% | % effect (ULK3): -21% | % effect (CLK3): 4% | % effect (ABL (H396P)): -4% | % effect (P70S6K): -1% | % effect (PKCBII): 3% | % effect (RIPK2): 1% | inhibition at 10 µM (MAO-A): 8% | inhibition at 10 µM (BB3 (h)): -11% | % effect (CDK3/CYCLINE): 6% | % effect (SAPK3): 4% | % effect (PHKGAMMA2): 11% | % effect (MST2): -11% | % effect (EPHB1): 3% | % effect (TRKA): 2% | % effect (PKG1ALPHA): 23% | inhibition at 10 µM (V2 (h)): 2% | % effect (JAK3): 4% | % effect (IKKALPHA): -17% | % effect (MNK2): -3% | % effect (PKD2): -1% | % effect (GCK): -10% | % effect (PKG1BETA): -7% | % effect (GRK7): -1% | % effect (HCK): -4%

— publication PMC5362750, “Discovery of Potent, Selective, and Orally Bioavailable Small-Molecule Modulators of the Mediator Complex-Associated Kinases CDK8 and CDK19” (Journal of Medicinal Chemistry, 2016)
